Legend:
[1] = test system: HhaI; assay: Secondary screen, fluorescence assay with HhaI endonuclease; format: biochemical; conditions: compound titration in the HTS assay
[2] = target: T1, XPG (Homo sapiens, UniProt P28715); assay: Secondary screen, fluorescence assay with XPG endonuclease; format: biochemical; conditions: compound titration in the HTS assay
T1 sequence (P28715 1-1186): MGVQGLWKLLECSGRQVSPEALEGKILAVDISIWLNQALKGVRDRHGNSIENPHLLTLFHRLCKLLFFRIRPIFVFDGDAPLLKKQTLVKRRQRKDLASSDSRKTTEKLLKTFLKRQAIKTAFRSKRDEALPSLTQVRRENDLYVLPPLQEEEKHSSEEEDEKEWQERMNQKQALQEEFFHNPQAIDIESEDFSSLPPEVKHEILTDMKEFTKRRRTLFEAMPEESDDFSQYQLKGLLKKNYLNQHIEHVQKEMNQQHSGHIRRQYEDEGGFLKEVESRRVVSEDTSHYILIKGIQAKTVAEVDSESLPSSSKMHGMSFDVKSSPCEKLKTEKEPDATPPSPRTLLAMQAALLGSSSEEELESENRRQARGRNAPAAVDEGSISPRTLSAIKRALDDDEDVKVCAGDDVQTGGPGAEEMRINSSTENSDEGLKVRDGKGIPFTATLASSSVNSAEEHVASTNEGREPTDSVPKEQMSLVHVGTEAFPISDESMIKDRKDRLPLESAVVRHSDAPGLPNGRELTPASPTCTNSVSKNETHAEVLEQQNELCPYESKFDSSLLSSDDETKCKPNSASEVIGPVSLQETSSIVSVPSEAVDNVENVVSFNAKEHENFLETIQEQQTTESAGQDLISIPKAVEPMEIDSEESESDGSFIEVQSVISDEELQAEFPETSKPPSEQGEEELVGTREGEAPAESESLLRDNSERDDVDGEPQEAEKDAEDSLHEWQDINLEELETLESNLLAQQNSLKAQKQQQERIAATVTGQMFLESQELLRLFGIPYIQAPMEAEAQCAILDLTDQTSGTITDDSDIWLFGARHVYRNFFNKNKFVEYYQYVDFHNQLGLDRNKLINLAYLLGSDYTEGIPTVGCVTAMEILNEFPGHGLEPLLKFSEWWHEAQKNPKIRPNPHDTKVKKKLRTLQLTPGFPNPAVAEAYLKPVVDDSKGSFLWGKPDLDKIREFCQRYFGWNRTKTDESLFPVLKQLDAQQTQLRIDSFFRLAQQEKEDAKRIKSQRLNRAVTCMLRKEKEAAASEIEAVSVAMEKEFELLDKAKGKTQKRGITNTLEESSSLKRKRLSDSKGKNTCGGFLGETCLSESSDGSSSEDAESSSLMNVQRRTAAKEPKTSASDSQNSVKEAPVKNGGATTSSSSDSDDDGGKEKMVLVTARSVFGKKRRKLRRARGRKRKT

[3] = test system: ERCC1 protein; assay: Western blot of ERCC1 protein stability; format: cell-based; conditions: 50 μM, 24, 48 and 72 hours, compared to cisplatin control treatment
Procedure: In order to study if the compounds' inhibitory activity of ERCC1-XPF incision is due to inhibition of DNA binding ability, we performed EMSAs. One possibility for ERCC1-XPF enzyme inhibition is via inhibition of the ERCC1-XPF binding to DNA. In this assay, we incubated the titrated Hit 1 or 2 respectively with purified ERCC1-XPF on ice and reactions were initiated by the addition of the 5'-[^32P] radiolabeled DNA substrate 37°C. The samples were separated on a 10% native gel and the products were visualized via phosphorimager analysis. […] If these compounds were affecting the protein-protein interaction between ERCC1 and XPF, we would expect to observe loss of protein following treatment similar to what we have observed with ERCC1 and XPF knockdowns.
Supplementary Figure S3: A. Analysis of 16168 and 143099 on XPG incision activity. Compounds were titrated and inhibition of
XPG incision activity was quantified for 16168 (open circles) or 143099 (filled circles). The results are presented as the mean ± SEM of 3
independent experiments. B. Western bots assessing ERCC1 protein stability following cisplatin (IC50 concentration), 143099 (50 μM) and […]

Row | SMILES | effect on HhaI activity [1] | effect on XPG activity [2] | effect on ERCC1 protein levels [3]
1 | Cc1ccc(S(=O)(=O)Oc2cc(S(=O)(=O)O)cc3cc(S(=O)(=O)O)cc(N)c23)cc1 [NSC16168] | no effect | no effect | neither Hit 1 nor Hit 2 affects ERCC1 protein levels
2 | Oc1cc(O)c2c(c1)OC(c1ccc(O)c(O)c1)C(O)C2c1c(O)cc(O)c2c1OC(c1ccc(O)c(O)c1)C(O)C2 (stereo not drawn) [NSC143099] | no effect on HhaI activity | some effect on XPG activity at higher concentrations | neither Hit 1 nor Hit 2 affects ERCC1 protein levels

Source: article PMC5342726, “Identification of small molecule inhibitors of ERCC1-XPF that inhibit DNA repair and potentiate cisplatin efficacy in cancer cells” (Oncotarget, 2016)
